What was measured:
Assay in all cases: relative viability (nuclei count vs DMSO), 5 days (fraction); higher = more cells survive
[1] = compound: CN(C/C=C/C1=CC=C(C=C1)Cl)CC2=CC=CC=C2N(CCO)S(=O)(=O)C3=CC=C(C=C3)OC [KN-93] + Cc1cc(Nc2cc(N3CCN(C)CC3)nc(Sc3ccc(NC(=O)C4CC4)cc3)n2)n[nH]1 [Tozasertib] (partner 0.1 µM)
How it was run: (§1)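 Values are medians from duplicate plates. Each reflects relative viability, defined as the nuclei count of treated wells over that of vehicle wells. Lung cancer cell lines in 1536-well plates were pin-tool dosed one day after seeding with one drug alone or with a fixed anchor-drug dose plus five library-drug doses (not always all listed) in √10 steps, then fixed, stained and imaged at 4× after 5 days.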

[2] = compound: CN(C/C=C/C1=CC=C(C=C1)Cl)CC2=CC=CC=C2N(CCO)S(=O)(=O)C3=CC=C(C=C3)OC [KN-93] + C[C@]1(O)C[C@@H](c2nc(-c3ccc4ccc(-c5ccccc5)nc4c3)c3c(N)nccn32)C1 [Linsitinib] (partner 1 µM)
How it was run: as §1

[3] = compound: CN(C/C=C/C1=CC=C(C=C1)Cl)CC2=CC=CC=C2N(CCO)S(=O)(=O)C3=CC=C(C=C3)OC [KN-93] + O=C(CCCCCCC(=O)Nc1ccccc1)NO [Vorinostat] (partner 1 µM)
How it was run: as §1

[4] = compound: CN(C/C=C/C1=CC=C(C=C1)Cl)CC2=CC=CC=C2N(CCO)S(=O)(=O)C3=CC=C(C=C3)OC [KN-93] + Cc1nc(Nc2ncc(C(=O)Nc3c(C)cccc3Cl)s2)cc(N2CCN(CCO)CC2)n1 [Dasatinib] (partner 0.075 µM)
How it was run: as §1

[5] = compound: CN(C/C=C/C1=CC=C(C=C1)Cl)CC2=CC=CC=C2N(CCO)S(=O)(=O)C3=CC=C(C=C3)OC [KN-93] + O=C(c1cc(Cc2n[nH]c(=O)c3ccccc23)ccc1F)N1CCN(C(=O)C2CC2)CC1 [Olaparib] (partner 8 µM)
How it was run: as §1

Cell Line | relative viability ([1]; first compound 0.08 µM) | relative viability ([1]; first compound 0.253 µM) | relative viability ([1]; first compound 2.53 µM) | relative viability ([1]; first compound 8 µM) | relative viability ([2]; first compound 0.08 µM) | relative viability ([2]; first compound 0.253 µM) | relative viability ([2]; first compound 2.53 µM) | relative viability ([2]; first compound 8 µM) | relative viability ([3]; first compound 0.08 µM) | relative viability ([3]; first compound 0.253 µM) | relative viability ([3]; first compound 2.53 µM) | relative viability ([3]; first compound 8 µM) | relative viability ([4]; first compound 0.08 µM) | relative viability ([4]; first compound 0.253 µM) | relative viability ([4]; first compound 2.53 µM) | relative viability ([4]; first compound 8 µM) | relative viability ([5]; first compound 0.08 µM) | relative viability ([5]; first compound 0.253 µM) | relative viability ([5]; first compound 2.53 µM) | relative viability ([5]; first compound 8 µM)
NCI-H2087 | 0.248 | 0.238 | 0.267 | 0.152 | 0.941 | 0.905 | 0.824 | 0.43 | 0.707 | 0.963 | 0.861 | 0.54 | 0.793 | 1.38 | 0.882 | 0.622 | 0.453 | 0.606 | 0.653 | 0.383
NCI-H2126 | 0.858 | 0.805 | 0.862 | 0.554 | 0.785 | 0.673 | 0.713 | 0.683 | 0.782 | 0.83 | 0.727 | 0.704 | 0.565 | 0.468 | 0.578 | 0.364 | 0.819 | 1.08 | 0.931 | 0.772
NCI-H2228 | 0.274 | 0.166 | 0.243 | 0.154 | 0.581 | 0.517 | 0.63 | 0.314 | 0.588 | 0.786 | 0.655 | 0.346 | 0.597 | 0.541 | 0.631 | 0.326 | 0.617 | 0.611 | 0.8 | 0.269
NCI-H2347 | 0.587 | 0.55 | 0.618 | 0.505 | 1.07 | 0.922 | 0.918 | 0.797 | 0.513 | 0.623 | 0.674 | 0.458 | 0.322 | 0.273 | 0.288 | 0.245 | 0.491 | 0.59 | 0.606 | 0.497
NCI-H2405 | 0.799 | 0.776 | 0.733 | 0.533 | 0.984 | 0.908 | 0.924 | 0.564 | 1.02 | 1.08 | 0.949 | 0.691 | 0.222 | 0.238 | 0.491 | 0.204 | 0.937 | 0.798 | 0.916 | 0.693
NCI-H3122 | 0.385 | 0.39 | 0.469 | 0.389 | 1.08 | 0.803 | 1.23 | 0.882 | 0.595 | 1.12 | 1.08 | 0.66 | 0.716 | 0.824 | 1.12 | 0.661 | 0.491 | 0.571 | 0.763 | 0.53
PC-3 [JPC-3] | 0.905 | 0.957 | 0.922 | 0.813 | 1.02 | 1.02 | 0.995 | 0.876 | 0.794 | 0.765 | 0.756 | 0.637 | 0.941 | 1.11 | 1.03 | 0.673 | 0.929 | 1.06 | 1.23 | 0.956
PC-14 | 0.642 | 0.544 | 0.583 | 0.21 | 0.855 | 0.976 | 1.07 | 0.824 | 0.623 | 0.753 | 0.649 | 0.625 | 0.335 | 0.18 | 0.198 | 0.0533 | 0.252 | 0.195 | 0.252 | 0.218
RERF-LC-KJ | 0.448 | 0.477 | 0.405 | 0.271 | 0.82 | 0.82 | 0.967 | 0.611 | 0.785 | 0.643 | 0.696 | 0.577 | 0.664 | 0.788 | 0.672 | 0.277 | 0.938 | 0.97 | 0.836 | 0.545
SK-LU-1 | 0.337 | 0.349 | 0.322 | 0.278 | 1.06 | 1.12 | 1.21 | 0.602 | 0.626 | 0.865 | 0.781 | 0.473 | 0.192 | 0.179 | 0.188 | 0.17 | 0.412 | 0.471 | 0.463 | 0.276
SK-MES-1 | 0.919 | 0.98 | 1.04 | 0.4 | 1.06 | 1.05 | 1.12 | 1.02 | 1.11 | 1.12 | 1.14 | 0.924 | 0.42 | 0.318 | 0.367 | 0.261 | 0.648 | 0.665 | 0.935 | 0.333
SW 1573 | 0.177 | 0.22 | 0.191 | 0.19 | 0.906 | 0.884 | 0.714 | 0.349 | 0.685 | 0.916 | 0.746 | 0.569 | 0.551 | 0.492 | 0.474 | 0.236 | 0.456 | 0.589 | 0.523 | 0.22
UMC-11 | 0.178 | 0.199 | 0.188 | 0.203 | – | 1.19 | 1.13 | 0.713 | 0.364 | 0.35 | 0.359 | 0.267 | 0.407 | 0.502 | 0.785 | 0.38 | 0.43 | 0.402 | 0.327 | 0.214
